From patent US20230113802A1, “COMPOSITION AND METHOD TO PREPARE LONG-ACTING INJECTABLE SUSPENSION CONTAINING MULTIPLE CANCER DRUGS” (University of Washington, priority 2020, published 2023)
Values joined by “and” are separate entries in the source; they are usually repeats but may differ in a detail not shown here. Identical values can stand only once.

Columns and labels:
[1] = Association efficiency of venetoclax and zanubrutinib with DcNP's by dialysis; type: physicochemical
Protocol: 85.4 mg DSPC, 33.6 mg DSPE-mPEG2000, 9.6 mg ABT-199, and 9.6 mg BGB-3111 were dissolved in 4 mL pre-warmed 70° C. tert-butyl alcohol. The solution was thoroughly mixed, lyophilized over 24 hrs, and reconstituted in 0.9% NaCl, 20 mM NaHCO3 buffer with trace TWEEN® 20. The resulting drug-combination, stabilized by lipid excipients and referred to as drug combination nanoparticle or DcNP's, were then filtered through an Acrodisc® CR syringe filter (0.2 μm PTFE Membrane, HPLC certified) and diluted with buffer solution to the desired concentration. Particle size was quantified using a NICOMP 380 ZLS (Zeta Potential/Particle Sizer). The extent of ABT-199 and BGB-3111 association with the DcNP particles in solution was analyzed via dialysis (6,000-8,000 molecular weight cutoff) under sink conditions; sink condition was achieved by dialyzing 200 μl of DcNP suspension against 200 mL buffer solution (1,000-fold volume change) for 4 hrs. The drug association efficiency (AE %) was determined by comparing the pre- and post-dialysis drug concentration ratios of each drug. Drug concentration was determined by the extraction drug in suspension and analyzed based on a LC-MS/MS assay as described below.
Following initial rehydration and without any sonication, particle size of the DcNP's with and without TWEEN20 was measured using the Zetasizer (FIG. 10). […] Without Tween20, DcNP size was primarily 39 nm in diameter (92%) with less than 8% of particles measuring 870 nm in diameter (FIG. 10). Particle size was determined via dynamic light scattering, and association efficiency (FIG. 11) is a normalized mass/mass ratio calculated by comparing amount of drug remaining associated with DcNP's compared to the overall amount of drug used to create the particles.

[2] = Pharmacokinetics of venetoclax-zanubrutinib DcNP's versus free drug in mice; type: in vivo, BALB/C mice; conditions: for AUC: female, BALB/C, mouse, plasma; for time detectable in plasma: following administration of the nanoparticles
Text: To quantify drug concentrations (both DcNP-bound and free drug), an extraction protocol was established to quantify venetoclax and zanubrutinib. In short, drug was solubilized by diluting the sample into ethyl acetate, liberating it from either the DcNP lipid matrix, mouse plasma, or both. Following centrifugation to remove organic material, the samples were dried with nitrogen gas, reconstituted in acetonitrile, and loaded onto an LC-MS/MS. Drug concentrations were quantified by comparing sample data with standard curves prepared from untreated mouse plasma spiked with known amounts of drug.
Separations were carried out on a Synergi column (100×2.0 mm) (Phenomenex, Torrance, USA). A C8 guard column (4.0×2.0 mm) was used (Phenomenex, USA). The separations were done under ambient temperature, and the flow rate was set to 0.55 ml/min. The mobile phase for the separations consisted of buffers A (water with 20 mM ammonium acetate) and B (acetonitrile). The single mobile phase ran for five minutes, and it consisted of 25% buffer A and 75% buffer B.
All animal procedures complied with and were approved by the University of Washington Institutional Animal Care and Use Committee. Female BALB/C mice were used, originally obtained from Charles River Laboratories (Wilmington, Mass.). Mice were kept under pathogen-free conditions, exposed to a 12 h light/dark cycle, and received food ad libitum. Three groups of three mice each were administered ABT-199 and BGB-3111: (1) the first group received a 180 μL intravenous injection of 600 μg ABT-199 and 600 μg BGB-3111 in 0.9% NaCl, 20 mM NaHCO3 buffer with trace DMSO and Cremophor EL as solubilizing agents, (2) the second group received an intravenous injection of ABT-199 and BGB-3111 DcNP's in equivalent volume and drug molar concentration as the first group, and (3) the third group received a subcutaneous injection of ABT-199 and BGB-3111 DcNP's in the inner right leg. Plasma was collected at select time points, then extracted and analyzed by HPLC-MS/MS using the previously established protocol to determine plasma concentrations of drug over time.

[3] = Estimating the maximum dissociated fraction of G and T in vivo (Eq. 1, Eq. 2); design: species or system BALB/c mice; conditions: for maximum dissociated fraction (fdiss. max), Eq. 1: from plasma AUCs of DcNP and CrEL
Text: To estimate a maximum dissociated fraction (fdiss. max) of GT from DcNPs in vivo, a non-compartmental approach based on the plasma AUCs of equi-molar injections of DcNP and CrEL formulations was first utilized: […]
In Eq. 1, it is assumed that systemic clearance of G or T administered as DcNPs only occurs after drug dissociates from the particles, and dissociated drug has the same clearance pathways as the free drug control (CrEL). This non compartmental approach also assumes that drug clearance occurs solely in the central compartment. For the two drugs of interest, T is mainly metabolized in the liver by CYP3A4 and CYP2C8 but G is metabolized by ubiquitous cytidine deaminase (CDA). To understand the impact of the ubiquitous metabolism of G on its pharmacokinetic profile, the plasma concentration of the primary metabolite of G, dFdU, was used as a biomarker for dissociated drug. […] The equation below then provides an estimate of the fraction of the G dose metabolized to dFdU. If the calculated fraction metabolized (fdiss.G→dFdU) from Eq. 2 equals the fdiss. max from Eq. 1, it can be surmised that once G is released from DcNPs at all locations in the body it exchanges readily with the circulating G and subsequently undergoes metabolism (i.e., metabolism of all dissociated drug occurs in the central compartment). However, if some or all of the drug released from DcNPs in peripheral tissue is immediately metabolized to dFdU without exchanging with G in circulation, the fdiss.G→dFdU estimates from Eq. 2 would be expected to exceed the fdiss. max from Eq. 1 (i.e., dissociated drug is metabolized in both the central and peripheral compartments).
G AUC0→∞,CrEL is the plasma AUC of G given in free drug form. G AUC0→∞,DcNP is the total AUCs of associated and dissociated G given in DcNP form. dFdU AUC0→∞, CrEL is the AUC of dFdU formed after administration of free G. dFdU AUC0→∞,DcNP is the AUC of dFdU after dosing G in DcNP, which reflects the amount of dissociated G released from DcNPs and available for metabolic conversion. fdiss.G→dFdU represents the fraction of DcNP-dose that is released as free drug and available for conversion to dFdU by CDA.
The assumptions underlying Eq. 2 are as follows: [1] Dissociated (free) G, but not associated G, is readily available for metabolism by CDA. Dissociated G is rapidly and extensively metabolized to dFdU by CDA. […] A detailed pharmacokinetic model for the associated and dissociated species will be presented next to simulate the in vivo association of both drugs.

[4] = iv, 600 ug, intravenous free drug injection (600 μg each drug)
[5] = iv, 600 ug, intravenously administered DcNP's
[6] = sc, subcutaneous injection of DcNP's, plasma over one week

## CC1(C)CCC(CN2CCN(c3ccc(C(=O)NS(=O)(=O)c4ccc(NCC5CCOCC5)c([N+](=O)[O-])c4)c(Oc4cnc5[nH]ccc5c4)c3)CC2)=C(c2ccc(Cl)cc2)C1 [Venetoclax, 4-[4-[[2-(4-chlorophenyl)-4,4-dimethylcyclohexen-1-yl]methyl]piperazin-1-yl]-N-[3-nitro-4-(oxan-4-ylmethylamino)phenyl]sulfonyl-2-(1H-pyrrolo[2,3-b]pyridin-5-yloxy)benzamide]
[1]; with TWEEN20, day 1
  AE % (association efficiency with the DcNP lipid platform): 100%
[1]; with TWEEN20, day 70
  AE % (association efficiency with the DcNP lipid platform): 99.91%
[1]; without TWEEN20, day 1
  AE % (association efficiency with the DcNP lipid platform): 100%
[1]; without TWEEN20, day 70
  AE % (association efficiency with the DcNP lipid platform): 100%
[2]
  AUC of subcutaneous DcNP's compared to intravenously delivered free drug (ratio): over 2.62
  time detectable in plasma: up to seven days
[2]; [4]
  AUC: 88800 ng·h/mL
[2]; [5]
  AUC: 216000 ng·h/mL
[2]; [6]
  AUC: 232000 ng·h/mL

## Nc1ccn([C@@H]2O[C@H](CO)[C@@H](O)C2(F)F)c(=O)n1 [Gemcitabine, 4-amino-1-[(2R,4R,5R)-3,3-difluoro-4-hydroxy-5-(hydroxymethyl)oxolan-2-yl]pyrimidin-2-one]
[3]; GT DcNP IV
  fraction of dissociated G accessible for metabolism (fdiss.G→dFdU), Eq. 2: 8%
  in vivo association to DcNPs per Eq. 1: > 98%
  maximum dissociated fraction (fdiss. max), Eq. 1: 1.6%
[3]; after IV GT-DcNP administration, listed as G
  G in DcNP dosage form not accessible for dFdU conversion / remaining associated to DcNPs in vivo: 92% and > 92%

## C=CC(=O)N1CCC([C@@H]2CCNc3c(C(N)=O)c(-c4ccc(Oc5ccccc5)cc4)nn32)CC1 [Zanubrutinib, (7S)-2-(4-phenoxyphenyl)-7-(1-prop-2-enoylpiperidin-4-yl)-4,5,6,7-tetrahydropyrazolo[1,5-a]pyrimidine-3-carboxamide]
[1]; with TWEEN20, day 1
  AE % (association efficiency with the DcNP lipid platform): 98.52%
[1]; with TWEEN20, day 70
  AE % (association efficiency with the DcNP lipid platform): 93.05%
[1]; without TWEEN20, day 1
  AE % (association efficiency with the DcNP lipid platform): 99.99%
[1]; without TWEEN20, day 70
  AE % (association efficiency with the DcNP lipid platform): 95.50%
[2]
  AUC of subcutaneous DcNP's compared to intravenously delivered free drug (ratio): > 5.92
  time detectable in plasma: less than one day
[2]; [4]
  AUC: 8300 ng·h/mL
[2]; [5]
  AUC: 11300 ng·h/mL
[2]; [6]
  AUC: 49000 ng·h/mL

## CC(=O)O[C@H]1C(=O)[C@@]2(C)[C@H]([C@H](OC(=O)c3ccccc3)[C@]3(O)C[C@H](OC(=O)[C@H](O)[C@@H](NC(=O)c4ccccc4)c4ccccc4)C(C)=C1C3(C)C)[C@]1(OC(C)=O)CO[C@@H]1C[C@@H]2O [Paclitaxel, [(1S,2S,3R,4S,7R,9S,10S,12R,15S)-4,12-diacetyloxy-15-[(2R,3S)-3-benzamido-2-hydroxy-3-phenylpropanoyl]oxy-1,9-dihydroxy-10,14,17,17-tetramethyl-11-oxo-6-oxatetracyclo[11.3.1.0^3,10.0^4,7]heptadec-13-en-2-yl] benzoate]
[3]; GT DcNP IV
  in vivo association to DcNPs per Eq. 1: > 75%
  maximum dissociated fraction (fdiss. max), Eq. 1: 26.6%
